{
  "source": "the Kinase Knowledgebase extract (Sharma et al. 2016)",
  "data": [
    {"target": "EGFR (murine) (UniProt P00533)", "sequence (P00533 whole entry, looked up)": "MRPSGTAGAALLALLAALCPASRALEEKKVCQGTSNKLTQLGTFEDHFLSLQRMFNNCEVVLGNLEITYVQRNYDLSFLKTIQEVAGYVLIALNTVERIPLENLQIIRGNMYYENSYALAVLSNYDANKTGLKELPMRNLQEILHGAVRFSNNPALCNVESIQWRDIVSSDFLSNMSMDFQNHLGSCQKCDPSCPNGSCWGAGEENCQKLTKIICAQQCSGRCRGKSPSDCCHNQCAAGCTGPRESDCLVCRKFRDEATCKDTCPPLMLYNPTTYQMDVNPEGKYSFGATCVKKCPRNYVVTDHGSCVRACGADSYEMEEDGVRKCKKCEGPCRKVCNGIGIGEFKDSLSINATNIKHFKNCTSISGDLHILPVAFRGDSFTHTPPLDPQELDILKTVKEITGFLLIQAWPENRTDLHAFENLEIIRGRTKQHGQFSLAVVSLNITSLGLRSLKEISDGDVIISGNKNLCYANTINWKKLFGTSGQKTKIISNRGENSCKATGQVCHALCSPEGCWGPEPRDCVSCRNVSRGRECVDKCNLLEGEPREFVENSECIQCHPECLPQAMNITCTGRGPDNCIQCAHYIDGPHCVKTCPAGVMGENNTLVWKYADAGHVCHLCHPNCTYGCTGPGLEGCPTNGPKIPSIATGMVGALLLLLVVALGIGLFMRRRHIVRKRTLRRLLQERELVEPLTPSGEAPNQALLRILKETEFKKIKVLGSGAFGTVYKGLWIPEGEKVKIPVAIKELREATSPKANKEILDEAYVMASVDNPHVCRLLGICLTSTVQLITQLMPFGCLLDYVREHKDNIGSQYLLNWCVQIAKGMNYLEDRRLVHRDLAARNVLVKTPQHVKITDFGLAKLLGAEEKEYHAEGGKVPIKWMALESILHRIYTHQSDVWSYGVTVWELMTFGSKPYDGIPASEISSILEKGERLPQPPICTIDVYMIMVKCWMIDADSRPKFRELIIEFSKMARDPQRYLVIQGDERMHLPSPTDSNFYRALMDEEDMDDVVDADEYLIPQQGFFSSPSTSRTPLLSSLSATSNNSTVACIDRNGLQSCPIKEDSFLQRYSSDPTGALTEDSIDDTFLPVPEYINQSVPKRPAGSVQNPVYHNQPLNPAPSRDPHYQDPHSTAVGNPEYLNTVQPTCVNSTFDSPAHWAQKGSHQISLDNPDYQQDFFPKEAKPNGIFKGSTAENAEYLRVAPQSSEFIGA", "settings": "nih3t3/c7", "units": {"IC50": "µM"}, "values": [
      {"molecule": "COC(=O)CCc1c[nH]c(/C=C2\\C(=O)Nc3cc(OC)c(OC)cc32)c1C", "IC50": "> 50"},
      {"molecule": "Cc1cc(C)c(/C=C2\\C(=O)Nc3ncccc32)[nH]1", "IC50": "> 100"},
      {"molecule": "Cc1c[nH]c(/C=C2\\C(=O)Nc3ccccc32)c1CC(=O)O", "IC50": "> 100"},
      {"molecule": "CCOC(=O)c1[nH]c(/C=C2\\C(=O)Nc3ccccc32)c(C(C)=O)c1C", "IC50": "> 10"},
      {"molecule": "CCOC(=O)c1c(C)[nH]c(/C=C2\\C(=O)Nc3ccc(NC(=O)c4ccc(C(=O)OC)cc4)cc32)c1C", "IC50": "> 10"},
      {"molecule": "CC(=O)c1[nH]c(/C=C2\\C(=O)Nc3ccccc32)c(C)c1C", "IC50": "> 100"},
      {"molecule": "CCc1c(/C=C2\\C(=O)Nc3ccccc32)[nH]c(C(=O)O)c1C", "IC50": "> 100"},
      {"molecule": "COC(=O)CCc1c[nH]c(/C=C2\\C(=O)Nc3ccccc32)c1C", "IC50": "> 100"},
      {"molecule": "CCOC(=O)c1c(C)[nH]c(/C=C2\\C(=O)Nc3ccc(Br)cc32)c1C", "IC50": "> 25"},
      {"molecule": "O=C(O)CCc1c(/C=C2\\C(=O)Nc3ncccc32)[nH]c2c1CCCC2", "IC50": 12.5},
      {"molecule": "Cc1c(CCC(=O)O)c[nH]c1/C=C1\\C(=O)Nc2ncccc21", "IC50": "> 25"},
      {"molecule": "CCOC(=O)CCc1c(C(=O)OCC)[nH]c(/C=C2\\C(=O)Nc3ccccc32)c1CC(=O)OCC", "IC50": "> 10"},
      {"molecule": "O=C1Nc2ncccc2/C1=C/c1cc2c([nH]1)CCCC2", "IC50": 29.9},
      {"molecule": "Cc1c(/C=C2\\C(=O)Nc3ncccc32)[nH]c2c1CCCC2", "IC50": 38.2},
      {"molecule": "COC(=O)Cc1c(Cl)[nH]c(/C=C2\\C(=O)Nc3ccccc32)c1C(=O)OC", "IC50": "> 50"},
      {"molecule": "Cc1[nH]c(/C=C2\\C(=O)Nc3ncccc32)c(C)c1CCC(=O)O", "IC50": "> 50"}
    ]}
  ]
}
